Values of other authors in US20070270436A1, “NOVEL AMINO- AND IMINO-ALKYLPIPERAZINES” (Recordati Ireland Limited, priority 2006, published 2007).

What was measured:
[1] = test system: release of glutamate and acetylcholine; conditions: dentate gyrus of the hippocampus; cited from earlier work
[2] = test system: aged rhesus monkeys; conditions: 1 mg/kg p.o.; cited from earlier work
[3] = test system: 5-HT1A agonist discriminative stimulus cue; conditions: 0.01-1 mg/kg i.m.; cited from earlier work
[4] = test system: marmosets; conditions: 2 mg/kg i.m., visual spatial discrimination; cited from earlier work

C[C@H](CN(C(=O)c1ccc(C#N)cc1)c1ccccn1)N1CCN(c2cccc3c2OCCO3)CC1 [lecozotan]
potassium chloride-stimulated release of glutamate and acetylcholine [1]: significantly potentiated
task performance efficiency [2]: significant improvement
blockade of the 5-HT1A agonist discriminative stimulus cue [3]: dose-related blockade
substitution for 8-OH-DPAT [3]: did not substitute
learning deficits induced by MK-801 and by cholinergic lesions of the hippocampus [4]: reversed
